Ki and half-life data for 4 compounds are collected here from patent US7381714B2, “A1 adenosine receptor agonists” (CV Therapeutics, Inc., priority 2005, dated 2008).

One data set addresses T1, A1 adenosine receptor (Mesocricetus auratus, UniProt A0A1U8BVR4).
T1 sequence (A0A1U8BVR4 1-326): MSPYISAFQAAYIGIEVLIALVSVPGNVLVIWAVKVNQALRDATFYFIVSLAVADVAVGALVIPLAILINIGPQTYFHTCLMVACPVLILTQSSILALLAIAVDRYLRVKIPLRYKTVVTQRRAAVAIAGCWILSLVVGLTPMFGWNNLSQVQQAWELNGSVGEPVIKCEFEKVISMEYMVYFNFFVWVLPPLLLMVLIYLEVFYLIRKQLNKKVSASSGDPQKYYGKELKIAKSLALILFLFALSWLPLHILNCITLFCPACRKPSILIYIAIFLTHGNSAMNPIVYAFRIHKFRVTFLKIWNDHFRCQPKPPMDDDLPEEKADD
Nature of the data set: Competitive radioligand binding assay, DDT cell membranes. Particulars: membranes of DDT cells; tritiated radioligand 1.5 nM; 23° C. 90 minutes; read-out: A1 BINDING AFFINITY Ki. Set-up: species or system hamster. On the procedure: DDT cells (hamster vas deferens smooth muscle cell line) were grown as monolayers in petri dishes using Dulbecco's Modified Eagle's Medium (DMEM) containing 2.5 μg mL^−1 amphotericin B, 100 U mL^−1 penicillin G, 0.1 mg mL^−1 streptomycin sulfate and 5% fetal bovine serum in a humidified atmosphere of 95% air and 5% CO2. Cells were subcultured twice weekly by dispersion in Hank's Balanced Salt Solution (HBSS) without the divalent cations and containing 1 mM EDTA. The cells were then seeded in growth medium at a density of 1.2×10^5 cells per plate and experiments were performed 4 days later at approximately one day preconfluence.
Attached cells were washed twice with HBSS (2×10 mL), scraped free of the plate with the aid of a rubber policeman in 5 mL of 50 mM Tris-HCl buffer pH 7.4 at 4° C. and the suspension was homogenized for 10 s. The suspension was then centrifuged at 27,000×g for 10 min. The pellet was resuspended in homogenization buffer by vortexing and centrifuged again as described above. The final pellet was resuspended in 1 vol of 50 mM Tris-HCl buffer pH 7.4 containing 5 mM MgCl2 for A1 adenosine receptor assays. For the [^35S]GTPγS binding assay the final pellet was resuspended in 50 mM Tris-HCl pH 7.4 containing 5 mM MgCl2, 100 mM NaCl and 1 mM dithiothreitol. This membrane suspension was then placed in liquid nitrogen for 10 min and stored at −80° C. Aliquots of the membrane suspension were later thawed and used for assays. The protein content was determined with a BradfordTm Assay Kit using bovine serum albumin as standard.
Compounds of Formula I were assayed by use of competitive radioligand binding methods to determine their affinity for the A1 adenosine receptor sites on the membranes of DDT cells. […] The amount of radioactivity retained on the filters was determined by liquid scintillation spectrometry. […]

The conditions of data set [1]: cited from earlier work.

For the compound `CCOC(=O)c1cn(-c2nc(NC3CCCC3)c3ncn([C@@H]4O[C@H](CO)[C@@H](O)[C@H]4O)c3n2)nn1` [II., ethyl 1-{9-[(4S,3R,5R)-3,4-dihydroxy-5-(hydroxymethyl)oxolan-2-yl]-6-(cyclopentylamino)purin-2-yl}-1,2,3-triazole-4-carboxylate], the Ki on A1 adenosine receptor was determined as 3 nM.

Turning to `CNC(=O)c1cn(-c2nc(NC3CCCC3)c3ncn([C@@H]4O[C@H](CO)[C@@H](O)[C@H]4O)c3n2)nn1` [III., (1-{9-[(4S,3R,5R)-3,4-dihydroxy-5-(hydroxymethyl)oxolan-2-yl]-6-(cyclopentylamino)purin-2-yl}(1,2,3-triazol-4-yl))-N-methylcarboxamide], the Ki on A1 adenosine receptor amounted to 2 nM.

As to `Nc1ncnc2c1ncn2[C@@H]1O[C@H](CO)[C@@H](O)[C@H]1O` [adenosine], the half-life result in data set [1] was “less than 10 sec”.

For the compound `NC(=O)c1cn(-c2nc(NC3CCCC3)c3ncn([C@@H]4O[C@H](CO)[C@@H](O)[C@H]4O)c3n2)nn1` [IV., 1-{9-[(4S,3R,5R)-3,4-dihydroxy-5-(hydroxymethyl)oxolan-2-yl]-6-(cyclopentylamino)purin-2-yl}-1,2,3-triazole-4-carboxamide], the Ki on A1 adenosine receptor came out at 16 nM.

As usually defined, the Ki is the dissociation constant of the complex between target and ligand, obtained from inhibition or displacement.
